Where no end group is shown, it is not given here.
Columns and labels:
[1] = biological target: T1, ^125 I-fibrinogen with immobilized p1 peptide (Homo sapiens, UniProt P08514); assay: Inhibition of 125I-fibrinogen binding to immobilized p1 peptide; conditions: for inhibition of fibrinogen binding to immobilized p1 (in words): text summary of Table 7
T1 construct: for GPIIb from residue 296; made in house; no expression host
Description: Polypeptides p1, p1', and controls were immobilized on 96-well Immulon-2 microtiter plates (Dynatech Laboratories, VA). The peptides were added to the plates and maintained at 4 C for 24 hours after which the plates were washed with Hepes-Tyrode's buffer (pH 7.4) containing Tween-20. The plates were post-coated with 3% BSA for 1 hr. at 37° C. and then washed again. ^125 I-fibrinogen (50 μL at 50 nM) was allowed to bind to the peptide-coated wells for 24 hours at 22° C. which were then extensively washed and counted for bound radioactivity.
Cation dependence of binding was established in the presence of EDTA (5 mM). Two gamma-chain peptides of fibrinogen (HHLGGAKQAGDV and KYGGHHLGGAHQAGDV) inhibited the interaction of fibrinogen with immobilized pl. […] These observations are consistent with the hypothesis that RGD gamma-chain peptides interact with the same sites in GPIIb-IIIa.

GPIIb = biological target: T2, GPIIb (Homo sapiens, UniProt P08514); assay: Chemical crosslinking of 125I-K16 to GPIIb on platelets; format: binding
T2 construct: endogenous in cells; host or cells: washed human platelets from fresh blood
From the text: Platelets were isolated from fresh human blood collected into acid/citrate/dextrose by differential centrifugation followed by gel filtration on Sepharose 2B in divalent ion-free Tyrode's buffer, pH 7.3, containing 0.1% bovine serum albumin. See, Marguerie et al., J. Biol. Chem., 225:154-161 (1980).
Platelet binding of K16 followed the protocols previously described for measuring platelet interactions with adhesive proteins and with this and other peptides. See, Ginsberg et al., J. Biol. Chem., 260:3931-3936 (1985); Lam et al., Fed. Proc. Fed. Am. Soc. Exp. Biol., 44:1126 (1985); and Marguerie et al., supra. Briefly, platelets were suspended at 4×10^8 /ml in divalent ion-free Tyrode's albumin buffer. Unless otherwise specified, Ca^2+ was added to a final concentration of 1 mM. The platelet stimulus used was 0.5 unit/ml alpha-thrombin. In assays in which fibrinogen and thrombin were present, 30 nM D-phenylalanyl-L-prolyl-arginine ketone (Calbiochem, La Jolla, Ca.) was added to the platelet suspension 5 minutes after addition of thrombin and 5 minutes before addition of fibrinogen. The radiolabeled peptide was then added to […] stimulated or nonstimulated platelets at a concentration of 30 μM, and binding proceeded for 45 min at 22° C. The selected cross-linking agent was then added. The cross-linking agent used in this study, bis(sulfosuccinimidyl) suberate (BS^3), purchased from Pierce Chemical Co. was dissolved in PBS immediately prior to use and admixed with the platelets to a final concentration of 0.2 mM. The cross-linking reactions were terminated after 10 min at 22° C. by addition of 10 mM Tris, pH 7.0.
The cell-bound ligand was recovered by centrifugation through 20% sucrose, and the cells were extracted in PBS containing 1% Nonidet P40 and 10 mM N-ethylmaleimide (Sigma). Extrated proteins were precipitated with 10% trichloroacetic acid, and the pellet obtained after centriguation was washed three times with cold 85% ethanol. The cross-linked samples were analyzed by electrophoresis (SDS-PAGE) on polyacrylamide vertical slab gels in the buffer system of Laemmli, Nature, 227 […] (1970). For disulfide bond reduction, the samples were treated with 5% 2-mercaptoethanol. Gels were dried and autoradiograms were developed with Kodak X-Omat AR films. Molecular weights were estimated on the basis of electrophoretic mobility relative to standards obtained from Diversified Biotech (MA).
Cross-linked samples were immunoprecipitated using a monoclonal antibody designated PMI-1, which recognizes the heavy chain of GPIIb. Loftus et al., Proc. Natl. Acad. Sci. USA. 84:7114 (1987). […]

[2] = GPIIb:K16 complex, gel under reducing conditions, excised and counted

O=C(O)CN(CCN(CC(=O)O)CC(=O)O)CC(=O)O [EDTA]
% Inhibition of ^125 I-fibrinogen binding to p1 ([1]; inhibitor 5000 μM): 90 ± 8%

KYGGHHLGGAKQAGDV [K16, peptide derived from fibrinogen gamma chain]
% Inhibition of ^125 I-fibrinogen binding to p1 ([1]; inhibitor 200 μM): 54 ± 12% | inhibition of fibrinogen binding to immobilized p1 (in words) [1]: inhibited | crosslinking of the radiolabeled peptide to the cells (GPIIb; 50-fold excess of nonlabeled K16, thrombin-stimulated platelets, FIG. 2A): abolished the crosslinking | radioactivity in the position of light chain of GPIIb (GPIIb; [2]): < 2% | radioactivity in the position of the heavy chain of GPIIb (GPIIb; [2]): 98% | increase of K16 crosslinking to GPIIb (GPIIb; thrombin stimulation relative to nonactivated platelets, 4 experiments): 12 fold

GRGESP [GRGESP]
inhibition at 200 µM ([1]; inhibitor 200 μM): 16 ± 7%

Fibrinogen
% Inhibition of ^125 I-fibrinogen binding to p1 ([1]; inhibitor 2 μM): 82 ± 1.2%

Albumin
% Inhibition of ^125 I-fibrinogen binding to p1 ([1]; inhibitor 2 μM): 12 ± 4% | inhibition of fibrinogen binding to immobilized p1 (in words) [1]: minimal inhibition

N=C(N)NCCC[C@H](N)C(=O)NCC(=O)N[C@@H](CC(=O)O)C(=O)N[C@@H](CO)C(=O)O [RGDS]
inhibition at 200 µM ([1]; inhibitor 200 μM): 52 ± 15%

HHLGGAKQAGDV [HHLGGAKQAGDV]
inhibition at 200 µM ([1]; inhibitor 200 μM): 57 ± 11%

YVTAGRGDSPASSK [YVTAGRGDSPASSK]
inhibition at 200 µM ([1]; inhibitor 200 μM): 61 ± 16%
